Where no end group is shown, it is not given here.
Columns and labels:
SG acini = conditions: paracrine factor; ref Kaufman et al., 1999; Šimo et al., 2011a; cited from earlier work
[1] = molecular target: SIFa-R (I. scapularis SIFamide receptor) (Ixodes scapularis, UniProt L7Z4E7); assay: Receptor functional assay; assay type: cell-based
[2] = molecular target: MIP-R1 (I. scapularis myoinhibitory peptide receptor 1) (Ixodes scapularis, UniProt L7ZCA0); assay: cell-based
synganglion = conditions: ref Kaufman, 1978; McSwain et al., 1992; cited from earlier work

Row | Compound | EC50 [2] [nM] | further results
1 | NCCc1ccc(O)c(O)c1 [Dopamine] | – | activation of SG acini (SG acini): acts as a paracrine factor for the activation of SG acini for fluid secretion
2 | AYRKPPFNGSIF-NH2 [SIFamide] | – | EC50 [1]: 5.8 nM
3 | ENHWNDLSGYW-NH2 [MIP3] | 15 | –
4 | GGDWNALSGMW-NH2 [MIP1] | 40 | –
5 | ASDWNRLSGMW-NH2 [MIP2] | 32 | –
6 | CC[C@@H]1C(=O)OC[C@@H]1Cc1cncn1C [pilocarpine] | – | activation of the synganglion (synganglion): activates the synganglion
